Results on 28 compounds are retold here after ChEMBL document CHEMBL4033663, “Design, combinatorial synthesis and biological evaluations of novel 3-amino-1'-((1-aryl-1H-1,2,3-triazol-5-yl)methyl)-2'-oxospiro[benzo[a] pyrano[2,3-c]phenazine-1,3'-indoline]-2-carbonitrile antitumor hybrid molecules” (Eur J Med Chem, 2017).

Molecules are shown by their SMILES. pIC50: −log10 of the molar value. A value given as a limit tells only on which side of the number the result lay.

One assay relates to HUVEC. Put plainly: Antiproliferative activity against human HUVEC cells after 48 hrs by MTT assay. It is filed as cell-based. For orientation: Formazan colour is commonly taken as a measure of viable cells.
Another assay has as its system HepG2. Put plainly: Antiproliferative activity against human HepG2 cells after 48 hrs by MTT assay. It is filed as functional, cell-based. To be noted: HepG2, 48 h.
For another assay, the system named is L02. The assay is described as follows: Antiproliferative activity against human L02 cells after 48 hrs by MTT assay. The note with it: L02, 48 h. It is filed as cell-based.
The subject of a further assay is HCT-116. Put plainly: Antiproliferative activity against human HCT116 cells after 48 hrs by MTT assay. It is filed as functional, cell-based. The note with it: HCT-116, 48 h.
In a further assay the test system is MCF7. The assay is described as follows: Antiproliferative activity against human MCF7 cells after 48 hrs by MTT assay. Format: functional, cell-based. The note with it: MCF7, 48 h.
Another assay deals with A549. The assay is described as follows: Antiproliferative activity against human A549 cells after 48 hrs by MTT assay. It is filed as functional, cell-based. The note with it: A549, 48 h.

Broadly, the pIC50 is −log10 of the IC50, conventionally taken in molar units. Read a high pIC50 as a low IC50. In the case of `CCc1ccccc1-n1nncc1CN1C(=O)C2(C(C#N)=C(N)Oc3c(N)cc4nc5ccccc5nc4c32)c2ccccc21` (configuration not stated), the pIC50 is below 4.30 with HUVEC; 4.75 in the assay with HepG2; 4.64 in the assay on L02; 4.99 with HCT-116; 4.61 with MCF7; 4.61 in the assay on A549.

For the compound `N#CC1=C(N)Oc2c(c3nc4ccccc4nc3c3ccccc23)C12C(=O)N(Cc1cnnn1-c1cc(Cl)ccc1Cl)c1ccccc12` (configuration not stated), the pIC50 with HUVEC, in the assay with HepG2, with L02, in the assay with HCT-116, in the assay with MCF7 and in the assay with A549 was below 4.30 each time.

For `Cc1ccccc1-n1nncc1CN1C(=O)C2(C(C#N)=C(N)Oc3c2c2nc4ccccc4nc2c2ccccc32)c2ccccc21` (configuration not stated), the pIC50 in the assay with HUVEC, with HepG2, with L02, in the assay with HCT-116, with MCF7 and in the assay on A549 was below 4.30 throughout.

With `N#CC1=C(N)Oc2c(N)cc3nc4ccccc4nc3c2C12C(=O)N(Cc1cnnn1-c1ccc([N+](=O)[O-])cc1[N+](=O)[O-])c1ccccc12` (configuration not stated), the pIC50 with HUVEC was below 4.30; in the assay with HepG2, 4.74; in the assay with L02, 4.64; in the assay with HCT-116, 4.62; in the assay with MCF7, 4.68; with A549 it was below 4.30.

Take `N#CC1=C(N)Oc2c(c3nc4ccccc4nc3c3ccccc23)C12C(=O)N(Cc1cnnn1-c1ccc(Cl)c(Cl)c1)c1ccccc12` (configuration not stated): the pIC50 in the assay on HUVEC, with HepG2, in the assay with L02, in the assay on HCT-116, with MCF7 and in the assay on A549 was below 4.30 throughout.

Take `N#CC1=C(N)Oc2c(N)cc3nc4ccccc4nc3c2C12C(=O)N(Cc1cnnn1-c1ccc(Cl)cc1Cl)c1ccccc12` (configuration not stated): the pIC50 with HUVEC, with HepG2, in the assay on L02, with HCT-116, in the assay with MCF7 and in the assay with A549 was below 4.30 in each case.

As to `N#CC1=C(N)Oc2c(c3nc4ccccc4nc3c3ccccc23)C12C(=O)N(Cc1cnnn1-c1ccc(Br)cc1)c1ccccc12` (configuration not stated), the pIC50 is below 4.30 in the assay with HUVEC; below 4.30 in the assay on HepG2; below 4.30 in the assay with L02; below 4.30 in the assay with HCT-116; 4.44 in the assay with MCF7; 4.35 with A549.

For `N#CC1=C(N)Oc2c(N)cc3nc4ccccc4nc3c2C12C(=O)N(Cc1cnnn1-c1c(F)cccc1F)c1ccccc12` (configuration not stated), the pIC50 with HUVEC, in the assay with HepG2, in the assay with L02, in the assay on HCT-116, with MCF7 and in the assay on A549 was below 4.30 each time.

With `Cc1ccc(Cl)cc1-n1nncc1CN1C(=O)C2(C(C#N)=C(N)Oc3c(N)cc4nc5ccccc5nc4c32)c2ccccc21` (configuration not stated), the pIC50 was below 4.30 in the assay with HUVEC; 4.76 with HepG2; below 4.30 in the assay on L02; 4.43 with HCT-116; 4.36 with MCF7; below 4.30 in the assay on A549.

In the case of `CCOc1ccc(-n2nncc2CN2C(=O)C3(C(C#N)=C(N)Oc4c(N)cc5nc6ccccc6nc5c43)c3ccccc32)cc1` (configuration not stated), the pIC50 was below 4.30 in the assay on HUVEC; below 4.30 in the assay on HepG2; below 4.30 in the assay on L02; below 4.30 with HCT-116; 4.57 in the assay on MCF7; below 4.30 with A549.

As to `COc1cc(-n2nncc2CN2C(=O)C3(C(C#N)=C(N)Oc4c(N)cc5nc6ccccc6nc5c43)c3ccccc32)c(OC)cc1Cl` (configuration not stated), the pIC50 in the assay with HUVEC, with HepG2, in the assay with L02, in the assay with HCT-116, in the assay with MCF7 and in the assay on A549 was below 4.30 each time.

Regarding `CCc1cccc(C)c1-n1nncc1CN1C(=O)C2(C(C#N)=C(N)Oc3c(N)cc4nc5ccccc5nc4c32)c2ccccc21` (configuration not stated), the pIC50 in the assay on HUVEC, with HepG2, in the assay with L02, with HCT-116, with MCF7 and in the assay on A549 was below 4.30 each time.

Take `N#CC1=C(N)Oc2c(c3nc4ccccc4nc3c3ccccc23)C12C(=O)N(Cc1cnnn1-c1cccc(Br)c1)c1ccccc12` (configuration not stated): the pIC50 with HUVEC, in the assay with HepG2, in the assay on L02, in the assay on HCT-116, in the assay on MCF7 and in the assay on A549 was below 4.30 throughout.

Regarding `N#CC1=C(N)Oc2c(c3nc4ccccc4nc3c3ccccc23)C12C(=O)N(Cc1cnnn1-c1ccc(F)c(Cl)c1)c1ccccc12` (configuration not stated), the pIC50 with HUVEC, in the assay with HepG2, with L02, in the assay on HCT-116, in the assay on MCF7 and in the assay on A549 was below 4.30 throughout.

With `N#CC1=C(N)Oc2c(N)cc3nc4ccccc4nc3c2C12C(=O)N(Cc1cnnn1-c1ccc(Cl)cc1)c1ccccc12` (configuration not stated), the pIC50 in the assay on HUVEC, in the assay with HepG2, with L02, with HCT-116, in the assay on MCF7 and with A549 was below 4.30 throughout.

With `N#CC1=C(N)Oc2c(c3nc4ccccc4nc3c3ccccc23)C12C(=O)N(Cc1cnnn1-c1ccccc1Cl)c1ccccc12` (configuration not stated), the pIC50 with HUVEC was below 4.30; in the assay on HepG2, below 4.30; in the assay on L02, below 4.30; with HCT-116, below 4.30; in the assay on MCF7 it was below 4.30; in the assay on A549, 4.37.

As to `COc1ccccc1-n1nncc1CN1C(=O)C2(C(C#N)=C(N)Oc3c2c2nc4ccccc4nc2c2ccccc32)c2ccccc21` (configuration not stated), the pIC50 in the assay on HUVEC, with HepG2, with L02, in the assay on HCT-116, in the assay with MCF7 and in the assay on A549 was below 4.30 in each case.

Take `Cc1ccccc1-n1nncc1CN1C(=O)C2(C(C#N)=C(N)Oc3c(N)cc4nc5ccccc5nc4c32)c2ccccc21` (configuration not stated): the negative-log IC50 (pIC50) was below 4.30 in the assay with HUVEC; below 4.30 in the assay with HepG2; below 4.30 in the assay on L02; below 4.30 in the assay on HCT-116; below 4.30 in the assay with MCF7; 4.50 with A549.

As for `CCOc1ccccc1-n1nncc1CN1C(=O)C2(C(C#N)=C(N)Oc3c(N)cc4nc5ccccc5nc4c32)c2ccccc21` (configuration not stated), the pIC50 was below 4.30 with HUVEC; 4.52 in the assay with HepG2; below 4.30 with L02; below 4.30 in the assay on HCT-116; below 4.30 in the assay with MCF7; below 4.30 with A549.

Regarding `N#CC1=C(N)Oc2c(N)cc3nc4ccccc4nc3c2C12C(=O)N(Cc1cnnn1-c1ccccc1Cl)c1ccccc12` (configuration not stated), the pIC50 with HUVEC is below 4.30; in the assay with HepG2, 4.47; in the assay with L02, below 4.30; in the assay on HCT-116 it was below 4.30; in the assay on MCF7, 4.46; in the assay with A549, 4.53.

As to `COc1ccccc1-n1nncc1CN1C(=O)C2(C(C#N)=C(N)Oc3c(N)cc4nc5ccccc5nc4c32)c2ccccc21` (configuration not stated), the pIC50 in the assay on HUVEC is below 4.30; with HepG2 it was below 4.30; in the assay with L02, below 4.30; in the assay on HCT-116, below 4.30; with MCF7, 4.54; with A549, 4.43.

Consider `CC(=O)Nc1ccc(-n2nncc2CN2C(=O)C3(C(C#N)=C(N)Oc4c(N)cc5nc6ccccc6nc5c43)c3ccccc32)cc1` (configuration not stated), for which the pIC50 in the assay with HUVEC, with HepG2, in the assay on L02, with HCT-116, with MCF7 and in the assay with A549 was below 4.30 in each case.

On to `COc1ccc(OC)c(-n2nncc2CN2C(=O)C3(C(C#N)=C(N)Oc4c(N)cc5nc6ccccc6nc5c43)c3ccccc32)c1` (configuration not stated), for which the pIC50 is below 4.30 in the assay with HUVEC; 4.35 in the assay on HepG2; below 4.30 with L02; below 4.30 in the assay on HCT-116; 4.55 in the assay on MCF7; 4.55 in the assay on A549.

On to `Cc1ccc(C)c(-n2nncc2CN2C(=O)C3(C(C#N)=C(N)Oc4c(N)cc5nc6ccccc6nc5c43)c3ccccc32)c1` (configuration not stated), for which the pIC50 in the assay on HUVEC, with HepG2, in the assay with L02, in the assay on HCT-116, in the assay with MCF7 and in the assay with A549 was below 4.30 throughout.

For `CCOc1ccc(-n2nncc2CN2C(=O)C3(C(C#N)=C(N)Oc4c3c3nc5ccccc5nc3c3ccccc43)c3ccccc32)cc1` (configuration not stated), the pIC50 is below 4.30 in the assay with HUVEC; below 4.30 with HepG2; below 4.30 with L02; below 4.30 in the assay with HCT-116; below 4.30 with MCF7; 4.60 in the assay on A549.

On to `N#CC1=C(N)Oc2c(c3nc4ccccc4nc3c3ccccc23)C12C(=O)N(Cc1cnnn1-c1ccccc1Br)c1ccccc12` (configuration not stated), for which the pIC50 in the assay on HUVEC, in the assay with HepG2, in the assay on L02, with HCT-116, in the assay with MCF7 and in the assay on A549 was below 4.30 throughout.

Take `Cc1ccc(-n2nncc2CN2C(=O)C3(C(C#N)=C(N)Oc4c(N)cc5nc6ccccc6nc5c43)c3ccccc32)cc1C` (configuration not stated): the pIC50 in the assay with HUVEC, in the assay on HepG2, in the assay with L02, with HCT-116, in the assay on MCF7 and with A549 was below 4.30 each time.

For the compound `CC[C@@]1(O)C(=O)OCc2c1cc1n(c2=O)Cc2cc3cc(O)ccc3nc2-1` [HYDROXYCAMPTOTHECIN], the pIC50 with HUVEC is 4.74; in the assay on HepG2 it was 4.99; with L02, 4.69; with HCT-116, 5.49; in the assay on MCF7 it was 5.55.
